Results from publication PMC12088000, “Design, synthesis and in silico molecular modelling studies of 2-Hydrazineyl-2-oxoethyl-4-(1H-pyrrol-1-yb) benzoate derivatives: a potent dual DHFR and ENR-reductase inhibitors with antitubercular, antibacterial and cytotoxic potential” (PLOS One, 2025).
Converted amounts (≈) assume the structure as drawn.

What was measured:
[1] = system: M. tuberculosis H37Rv; assay: Antitubercular activity, Microplate Alamar Blue test (MABA); assay type: cell-based, Mycobacterium tuberculosis; settings: Mycobacterium tuberculosis, H37RV, n = 3
[2] = target: InhA enzyme from M. tuberculosis (Mycobacterium tuberculosis, UniProt P9WGR1); assay: InhA inhibition assay; assay type: biochemical; settings: for inhibition at 50 µM: read-out: % InhA Inhibition at 50 µM
Sequence of InhA enzyme from M. tuberculosis (P9WGR1 whole entry, looked up): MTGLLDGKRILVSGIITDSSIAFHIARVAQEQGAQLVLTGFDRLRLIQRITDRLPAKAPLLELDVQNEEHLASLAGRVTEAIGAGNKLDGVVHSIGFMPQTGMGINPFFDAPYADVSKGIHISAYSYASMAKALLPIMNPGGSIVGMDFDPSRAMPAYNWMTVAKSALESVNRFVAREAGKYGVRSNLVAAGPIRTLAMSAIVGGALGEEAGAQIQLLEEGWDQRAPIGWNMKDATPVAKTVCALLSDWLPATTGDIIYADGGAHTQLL

[3] = system: human lung cancer cell line A549; assay: MTT-based cytotoxicity; assay type: cell-based; settings: MTT assay; for IC50: Homo sapiens, A549
Method: The cytotoxic effects of seventeen selected molecules were assessed against the A549 human lung adenocarcinoma cell line using the MTT assay. Cisplatin served as the reference drug for comparison. Lower IC50 values indicate higher cytotoxicity.
The cytotoxic activity (IC50) of selected compounds against A549 (lung adenocarcinoma) MV cell-lines was evaluated by performing cellular conversion of MTT [3-(4,5-dimethylthiazo-2-yl)-2,5-diphenyl-tetrazolium bromide] into a formazan product. This evaluation was conducted up to a concentration of 50 mg/mL using the Promega Cell Titre 96 non-radioactive cell proliferation assay, with cisplatin serving as the positive control. Cytotoxicity is commonly quantified by determining the IC50 value, which represents the quantity of a substance that reduces the optical density of treated cells by 50% compared to untreated cells, as measured by the MTT experiment. The results are presented as IC50 values (mean ± standard error of the mean (SEM) obtained from three separate and independent measurements.

[4] = system: E. coli ATCC 25922; assay: Antibacterial activity, broth microdilution (E. coli); settings: for MIC: Escherichia coli, ATCC25922, read-out: E. coli ATCC 25922 (Gram –ve) MIC, broth microdilution
Method: (§1) All twenty-eight molecules were evaluated for in vitro antimicrobial activities that were assessed against Gram +ve and Gram -ve strains.
(§2) The antibacterial inhibitory effects of all compounds were assessed using the broth microdilution method, with ciprofloxacin serving as the reference medication.

[5] = system: S. aureus ATCC 29213; assay: Antibacterial activity, broth microdilution (S. aureus); settings: Staphylococcus aureus, ATCC29213, read-out: S. aureus ATCC 29213 (Gram +ve) MIC
Method: as §1, §2

[6] = target: MtDHFR (Mycobacterium tuberculosis, UniProt P9WNX1); assay: biochemical; assay type: biochemical
Sequence of MtDHFR (P9WNX1 whole entry): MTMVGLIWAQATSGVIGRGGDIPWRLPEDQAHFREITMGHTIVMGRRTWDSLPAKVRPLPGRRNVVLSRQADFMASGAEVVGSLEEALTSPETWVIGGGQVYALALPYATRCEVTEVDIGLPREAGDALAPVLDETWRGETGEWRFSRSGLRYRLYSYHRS

Compound	MIC [1] [µg/mL]	inhibition at 50 µM [2] [%]	IC50 [3] [µg/mL]	MIC [4] [µg/mL]	MIC [5] [µg/mL]	IC50 [6] [µM]	MtDHFR inhibition, in words, compared with trimethoprim [6]	E. coli ATCC 25922 (Gram –ve) MIC ([4]; broth microdilution) [µg/mL]	IC50 human lung cancer cell line A549 [3] [µg/mL]	% InhA Inhibition at 50 µM ([2]; 50 µM)
CC(=NNC(=O)COC(=O)c1ccc(-n2cccc2)cc1)c1ccc(F)cc1 [Compound 5l, 2-(2-(1-(4-fluorophenyl)ethylidene)hydrazinyl)-2-oxoethyl 4-(1H-pyrrol-1-yl)benzoate]	1.6 (≈ 4.22 µM)	46	241 ± 0.6 (≈ 635 µM)	3.12 (≈ 8.22 µM)	12.5 (≈ 32.9 µM)	65	moderate inhibition			
COc1cccc(C(C)=NNC(=O)COC(=O)c2ccc(-n3cccc3)cc2)c1 [Compound 5h, 2-(2-(1-(3-methoxyphenyl)ethylidene)hydrazinyl)-2-oxoethyl 4-(1H-pyrrol-1-yl)benzoate]	1.6 (≈ 4.09 µM)			3.12 (≈ 7.97 µM)	12.5 (≈ 31.9 µM)	124				
CC(=NNC(=O)COC(=O)c1ccc(-n2cccc2)cc1)c1ccc(C)cc1 [Compound 5e, 2-oxo-2-(2-(1-(p-tolyl)ethylidene)hydrazinyl)ethyl 4-(1H-pyrrol-1-yl)benzoate]	1.6 (≈ 4.26 µM)			3.12 (≈ 8.31 µM)	12.5 (≈ 33.3 µM)	118				
NNC(=O)c1ccncc1 [Isoniazid, reference compound]	1.6 (≈ 11.7 µM)	> 99	> 450							
C=C1CC(=O)N(C(=O)COC(=O)c2ccc(-n3cccc3)cc2)NC1=O [Compound 4g, 2-(4-methylene-3,6-dioxotetrahydropyridazin-1(2H)-yl)-2-oxoethyl 4-(1H-pyrrol-1-yl)benzoate]	1.6 (≈ 4.53 µM)			0.8 (≈ 2.26 µM)	3.12 (≈ 8.83 µM)	56	moderate inhibition			
[H]/N=C(/N)N[C@H]1[C@H](O)[C@@H](O)[C@H](O[C@@H]2O[C@@H](C)[C@](O)(C=O)[C@H]2O[C@@H]2O[C@@H](CO)[C@H](O)[C@@H](O)[C@@H]2NC)[C@@H](N/C(N)=N\[H])[C@@H]1O [Streptomycin, reference compound]	0.8 (≈ 1.38 µM)				2 (≈ 3.44 µM)					
CC(=NNC(=O)COC(=O)c1ccc(-n2cccc2)cc1)c1ccc(Br)cc1Br [Compound 5m, 2-(2-(1-(2,4-dibromophenyl)ethylidene)hydrazinyl)-2-oxoethyl 4-(1H-pyrrol-1-yl)benzoate]	3.12 (≈ 6.01 µM)			0.4 to 0.8 (≈ 0.77 to 1.54 µM)	6.25 (≈ 12 µM)	90		0.8		
CC(=NNC(=O)COC(=O)c1ccc(-n2cccc2)cc1)c1ccc(N)cc1 [Compound 5o, 2-(2-(1-(4-aminophenyl)ethylidene)hydrazinyl)-2-oxoethyl 4-(1H-pyrrol-1-yl)benzoate]	3.12 (≈ 8.29 µM)			3.12 (≈ 8.29 µM)	12.5 (≈ 33.2 µM)	90				
C/C(=N\NC(=O)COC(=O)c1ccc(-n2cccc2)cc1)c1ccc([N+](=O)[O-])cc1 [Compound 5d, 2-(2-(1-(4-nitrophenyl)ethylidene) hydrazineyl) -2-oxoethyl-4-(1H-pyrrol-1-yl) benzoate]	1.6 (≈ 3.94 µM)			1.6 (≈ 3.94 µM)	6.25 (≈ 15.4 µM)	121				
N.N.[Cl][Pt][Cl] [Cisplatin, reference compound]									9.90	
O=C1CCC(=O)N(C(=O)COC(=O)c2ccc(-n3cccc3)cc2)N1 [Compound 4d, 2-(3,6-dioxotetrahydropyridazin-1(2H)-yl)-2-oxoethyl 4-(1H-pyrrol-1-yl)benzoate]	1.6 (≈ 4.69 µM)			1.6 (≈ 4.69 µM)	6.25 (≈ 18.3 µM)	31	greater inhibition characteristics than trimethoprim			
COc1ccc(C=NNC(=O)COC(=O)c2ccc(-n3cccc3)cc2)cc1 [Compound 6e, 2-(2-(4-methoxybenzylidene)hydrazinyl)-2-oxoethyl 4-(1H-pyrrol-1-yl)benzoate]	1.6 (≈ 4.24 µM)			1.6 (≈ 4.24 µM)	6.25 (≈ 16.6 µM)	69	moderate inhibition			no inhibition
CC(=NNC(=O)COC(=O)c1ccc(-n2cccc2)cc1)c1cccc(O)c1 [Compound 5p, 2-(2-(1-(3-hydroxyphenyl)ethylidene)hydrazinyl)-2-oxoethyl 4-(1H-pyrrol-1-yl)benzoate]	3.12 (≈ 8.27 µM)			3.12 (≈ 8.27 µM)	12.5 (≈ 33.1 µM)	115				
